According to patent publication US10011590B2, “Crystalline forms of vilazodone hydrochloride and vilazodone free base” (DR. REDDY'S LABORATORIES LIMITED, priority 2012, dated 2018):

Test: Effect of variation of water (and solvent) content on stability and PXRD pattern of the solid form
Format: physicochemical
Conditions: for effect of variation of water content on stability and PXRD pattern: variation of water content within the stated range

Cl.N#Cc1ccc2[nH]cc(CCCCN3CCN(c4ccc5oc(C(N)=O)cc5c4)CC3)c2c1 [Form B, 2-benzofurancarboxamide, 5-[4-[4-(5-cyano-1H-indol-3-yl)butyl]-1-piperazinyl]-, hydrochloride (1:1)]
effect of variation of water content on stability and PXRD pattern (listed as crystalline form B of vilazodone hydrochloride): may not affect the stability and PXRD pattern

Cl.N#Cc1ccc2[nH]cc(CCCCN3CCN(c4ccc5oc(C(N)=O)cc5c4)CC3)c2c1 [Form C, 2-benzofurancarboxamide, 5-[4-[4-(5-cyano-1H-indol-3-yl)butyl]-1-piperazinyl]-, hydrochloride (1:1)]
effect of variation of water content on stability and PXRD pattern (listed as vilazodone hydrochloride crystalline form C): may not affect the stability and PXRD pattern

Cl.N#Cc1ccc2[nH]cc(CCCCN3CCN(c4ccc5oc(C(N)=O)cc5c4)CC3)c2c1 [2-benzofurancarboxamide, 5-[4-[4-(5-cyano-1H-indol-3-yl)butyl]-1-piperazinyl]-, hydrochloride (1:1)]
effect of variation of water content on stability and PXRD pattern: does not affect the stability and PXRD pattern

Cl.N#Cc1ccc2[nH]cc(CCCCN3CCN(c4ccc5oc(C(N)=O)cc5c4)CC3)c2c1 [Form D, 2-benzofurancarboxamide, 5-[4-[4-(5-cyano-1H-indol-3-yl)butyl]-1-piperazinyl]-, hydrochloride (1:1)]
effect of variation of water and solvents on stability and PXRD pattern (variation of water and solvent content of the mixed solvates): may not affect the stability and PXRD pattern

N#Cc1ccc2[nH]cc(CCCCN3CCN(c4ccc5oc(C(N)=O)cc5c4)CC3)c2c1 [form I of vilazodone free base, vilazodone free base]
effect of variation of water content on stability and PXRD pattern: does not affect the stability and PXRD pattern
